Like-named read-outs stand apart in the source and are kept apart here. Values belong to the compound of their own block, whether it stands above or below them.
Experiments:
[1] = Non-enzymatic release of limonin from limonin-17-β-D-glucopyranoside in aqueous solution on storage (HPLC-MS/MS); assay type: physicochemical; conditions: for limonin released from the glucopyranoside: up to 14 weeks in the dark; for limonin released from its precursor (yield): 14 weeks in the dark
Method: To investigate the putative non-enzymatic release of limonin from limonin-17-β-D-glucopyranoside during storage of orange juice, aqueous solutions of the glucopyranoside adjusted to the pH value of a freshly squeezed orange juice (pH 3.5) or to the range of pH values found for orange juice concentrates (pH 2.0 and 3.0) were held at 20° C. for up to 14 weeks in the dark. At regular time intervals, aliquots were withdrawn from the model solutions and analyzed for the amount of limonin liberated from the glucopyranoside by means of HPLC-MS/MS operating in the MRM mode. […] For example, 0.85% mol of limonin was released from the glucopyranoside when maintained at pH 2.0, whereas at pH 3.5 only 0.25% of the bitter compound was generated.
In order to investigate the influence of the temperature on limonin generation, aqueous solutions of the glucopyranoside adjusted to pH 3.0 were maintained at 4, 20, and 30° C. for up to 14 weeks in the dark. At regular time intervals, the amounts of limonin were determined by means of HPLC-MS/MS operating in the MRM mode. […] For example, limonin was released from its precursor in a yield of nearly 4.0% when incubated at 30° C., whereas only 0.2% of the bitter compound was detectable after storing the precursor solution at 4° C. for 14 weeks.
In particular, aqueous solutions of limonin-17-β-D-glucopyranoside (0.35 mg/L) adjusted to pH value of 2.0, 3.0, and 3.5, respectively, by adding trace amounts of hydrochloric acid (1 mol/L) were maintained at different temperatures (4, 20, 30° C.) for up to 14 weeks in closed vials in the dark. At regular time intervals, samples (5 μL) were withdrawn with a syringe and were analyzed for the generation of limonin by means of LC-MS/MS on a Synergi Fusion, 150×2 mm i.d., 4 μm column (Phenomenex). To achieve this, chromatography was performed with a flow rate of 250 μL/min starting with a mixture (80/20, v/v) of 0.1% aqueous formic acid and acetonitrile, increasing the acetonitrile content to 40% within 10 min, then to 80% within 5 min, held for 5 min, and, finally, to 100% within 5 min. Using negative electrospray ionization, limonin was analyzed in the multiple reaction monitoring (MRM) mode using the mass transition m/z 469→229. Quantitative analysis was performed by comparing the peak areas obtained for the mass trace with those of defined standard solutions of limonin in methanol.

Bitter Taste = assay: Bitter taste recognition threshold, trained sensory panel; assay type: in vivo, human
Method: To study the influence of the chirality of C(17) on the sensory activity of these limonoids, bitter threshold concentrations were determined for limonin and C17-epilimonin.
(§1) To make these evaluations, eleven assessors (four women and seven men, age 23-39 years), who participated for at least two years in weekly training sessions, determined taste recognition threshold concentrations in bottled water (pH 5.1) by means of a three-alternative forced-choice method with ascending concentrations of the stimulus following the procedure reported previously in Stark, T.; Barenther, S.; Hofmann, T. (2005) J. Agric. Food Chem. 53:5407-5418.

Astringency Taste = assay: Astringency taste threshold, sensory; assay type: in vivo, human
Text: The inventors have discovered that, as with bitterness, a plurality of compounds present in orange juice below the astringency threshold contributes to the astringent mouth feel of the juice.
as §1

[2] = Incubation of limonin in aqueous solution, formation of isolimonin; assay type: physicochemical; conditions: pH of 3
[3] = Homo sapiens; read-out: Bitter Taste Threshold
[4] = Homo sapiens; read-out: Astringency Taste Threshold

limonin released from the glucopyranoside ([1]; pH 2.0, 20° C.): 0.85 % mol | limonin released from its precursor (yield) ([1]; pH 3.0, 4° C.): 0.2% | limonin released from its precursor (yield) ([1]; pH 3.0, 30° C.): ~4.0% | limonin released from the glucopyranoside ([1]; pH 3.5, 20° C.): 0.25%
Compound: CC1(C)O[C@H]2CC(=O)OC[C@]23[C@H]2CC[C@@](C)([C@@H](O[C@@H]4O[C@H](CO)[C@@H](O)[C@H](O)[C@H]4O)c4ccoc4)[C@@]4(O[C@@H]4C(=O)O)[C@]2(C)C(=O)C[C@@H]13 [Limonin-17-β-D-glucopyranoside]
Bitter Taste Threshold (Bitter Taste; in vivo): 106 µmol/L | Astringency Taste Threshold (Astringency Taste; in vivo): 17 µmol/L

Compound: COc1ccc(-c2oc3c(OC)c(OC)c(OC)c(OC)c3c(=O)c2OC)cc1OC [3,5,6,7,8,3′,4′-heptamethoxyflavone]
minimal effective concentration (Bitter Taste; [3]): 24 to 31 µM | minimal effective concentration (Astringency Taste; [4]): 4 to 5 µM

Compound: COc1cc(-c2cc(=O)c3c(OC)c(OC)c(OC)c(OC)c3o2)ccc1O [4′-hydroxy-3′,5,6,7,8-pentamethoxyflavone]
minimal effective concentration (Bitter Taste; [3]): 25 µM | minimal effective concentration (Astringency Taste; [4]): 6 µM

Compound: Nomilin β-glpc
Bitter Taste Threshold (Bitter Taste; in vivo): >700 µmol/L

Compound: CC1(C)OC(=O)C[C@H](O)[C@]2(C)[C@H]3CC[C@@]4(C)[C@H](c5ccoc5)OC(=O)[C@H]5O[C@]54[C@]3(C)C(=O)C[C@@H]12 [Deacetylnomilin]
Bitter Taste Threshold (Bitter Taste; in vivo): >106 µmol/L | Astringency Taste Threshold (Astringency Taste; in vivo): 13.2 µmol/L

Compound: COc1ccc(-c2oc3cc(OC)c(OC)c(OC)c3c(=O)c2O[C@@H]2O[C@H](CO)[C@@H](O)[C@H](O)[C@H]2O)cc1OC [5,6,7,3′,4′-pentamethoxy-flavone-3-O-β-D-glucopyranoside]
Bitter Taste Threshold (Bitter Taste; in vivo): 61 µmol/L | Astringency Taste Threshold (Astringency Taste; in vivo): 21 µmol/L

Compound: CC(=O)O[C@H]1CC(=O)OC(C)(C)[C@@H]2CC(=O)[C@]3(C)[C@H](CC[C@@]4(C)[C@H](c5ccoc5)OC(=O)[C@H]5O[C@]543)[C@@]12C [Nomilin]
minimal effective concentration (Bitter Taste; Homo sapiens, read-out: Bitter Taste Threshold): 13 µM | times more bitter than caffeine (Bitter Taste; relative to caffeine): ~150 times | times more bitter than catechin (Bitter Taste; relative to catechin): 45 times

Compound: Nomilin acid β-glpc
Bitter Taste Threshold (Bitter Taste; in vivo): >800 µmol/L

Compound: COc1ccc(-c2cc(=O)c3c(OC)c(OC)c(OC)c(OC)c3o2)cc1OC [5,6,7,8,3′,4′-hexamethoxyflavone]
minimal effective concentration (Bitter Taste; [3]): 103 µM | minimal effective concentration (Astringency Taste; [4]): 51 µM

Compound: COc1ccc2c(=O)cc(-c3ccc(OC)c(OC)c3)oc2c1 [7,3′,4′-trimethoxyflavone]
minimal effective concentration (Bitter Taste; [3]): > 400 µM | minimal effective concentration (Astringency Taste; [4]): 15 µM

Compound: COc1ccc(-c2oc3cc(OC)c(OC)c(OC)c3c(=O)c2OC)cc1OC [3,5,6,7,3′,4′-hexamethoxyflavone]
minimal effective concentration (Bitter Taste; [3]): 19 µM | minimal effective concentration (Astringency Taste; [4]): 9 µM

Compound: COc1ccc(-c2cc(=O)c3c(OC)cc(OC)c(OC)c3o2)cc1OC [5,7,8,3′,4′-pentamethoxyflavone]
minimal effective concentration (Bitter Taste; [3]): 32 µM | minimal effective concentration (Astringency Taste; [4]): 13 µM

Compound: COc1ccc(-c2oc3c(OC)c(OC)c(OC)c(OC)c3c(=O)c2O[C@@H]2O[C@H](CO)[C@@H](O)[C@H](O)[C@H]2O)cc1OC [5,6,7,8,3′,4′-Hexamethoxyflavone-3-O-β-D-glucopyranoside]
Bitter Taste Threshold (Bitter Taste; in vivo): 78 µmol/L | Astringency Taste Threshold (Astringency Taste; in vivo): 20 µmol/L

Compound: 5,6,7,3′,4′-pentamethoxyflavoneglucoside
Bitter Taste Threshold (Bitter Taste; in vivo): 61 µmol/L | Astringency Taste Threshold (Astringency Taste; in vivo): 21 µmol/L

Compound: COc1ccc(-c2cc(=O)c3c(OC)cc(OC)c(OC)c3o2)cc1 [5,7,8,4′-tetramethoxyflavone]
minimal effective concentration (Bitter Taste; [3]): > 120 µM | minimal effective concentration (Astringency Taste; [4]): 44 µM

Compound: COc1ccc(-c2cc(=O)c3c(OC)c(OC)c(OC)c(OC)c3o2)cc1 [5,6,7,8,4′-pentamethoxyflavone]
minimal effective concentration (Bitter Taste; [3]): 93 µM | minimal effective concentration (Astringency Taste; [4]): 19 µM

Compound: COc1ccc(-c2cc(=O)c3c(OC)c(OC)c(OC)cc3o2)cc1OC [5,6,7,3′,4′-pentamethoxyflavone]
minimal effective concentration (Bitter Taste; [3]): 56 µM | minimal effective concentration (Astringency Taste; [4]): 24 µM

Compound: COc1ccc(-c2cc(=O)c3c(OC)c(OC)c(OC)cc3o2)cc1 [5,6,7,4′-tetramethoxyflavone]
minimal effective concentration (Astringency Taste; Homo sapiens, read-out: Astringency Taste Threshold): 31 µM

Compound: COc1ccc(-c2oc3c(OC)c(OC)cc(OC)c3c(=O)c2OC)cc1OC [3,5,7,8,3′,4′-hexamethoxyflavone]
minimal effective concentration (Bitter Taste; [3]): > 250 µM | minimal effective concentration (Astringency Taste; [4]): 125 µM

Compound: COc1ccc(-c2cc(=O)c3ccc(OC)c(OC)c3o2)cc1OC [7,8,3′,4′-tetramethoxyflavone]
minimal effective concentration (Bitter Taste; [3]): > 400 µM | minimal effective concentration (Astringency Taste; [4]): 44 µM

Compound: Deacetylnomilinic acid-17-β-D-glucopyranoside
Bitter Taste Threshold (Bitter Taste; in vivo): 68 µmol/L | Astringency Taste Threshold (Astringency Taste; in vivo): 27 µmol/L

Compound: 5,6,7,8,3′,4′-hexamethoxyflavoneglucoside
Bitter Taste Threshold (Bitter Taste; in vivo): 78 µmol/L | Astringency Taste Threshold (Astringency Taste; in vivo): 20 µmol/L

Compound: CC1(C)O[C@H]2CC(=O)OC[C@]23[C@H]2CC[C@@]4(C)[C@H](c5ccoc5)OC(=O)[C@H]5O[C@]54[C@]2(C)C(=O)C[C@@H]13 [Limonin, reference compound]
minimal effective concentration (Bitter Taste; [3]): 4 µM | bitter threshold concentration (Bitter Taste; bottled water pH 5.1, three-alternative forced-choice, eleven assessors): 4.0 µmol/L | times more bitter than caffeine (Bitter Taste; relative to caffeine): ~200 times | times more bitter than catechin (Bitter Taste; relative to catechin): 150 times | minimal effective concentration (Astringency Taste; [4]): 4 µM | formation of isolimonin on incubation (direct epimerization) [2]: does not produce significant quantity of isolimonin

Compound: C17-epilimonin [Isolimonin]
bitter threshold concentration (Bitter Taste; water; bottled water pH 5.1, three-alternative forced-choice, eleven assessors): 10.0 µg/L | Astringency Taste Threshold (Astringency Taste): 10 mg/L

Compound: Epiisoobacunoic acid 17-β-D-glucopyranoside
Bitter Taste Threshold (Bitter Taste; in vivo): 42 µmol/L | Astringency Taste Threshold (Astringency Taste; in vivo): 16 µmol/L

Compound: Obacunon β-glpc
Bitter Taste Threshold (Bitter Taste; in vivo): 49 µmol/L

Reference: US20090175995A1, “CONTROL OF FLAVOR CHARACTERISTICS OF AND INDICATOR OF FRESHNESS IN FRUIT JUICE” (TROPICANA PRODUCTS, INC., priority 2007, published 2009)
